Measured values taken from patent US12122756B2, “Biflavone compound against I-type herpes simplex virus, and preparation method therefor and use thereof” (priority 2022, dated 2024).
Marks after values point to notes of the source that are not given here.

Experiments:
HSV-I [1] = test: Action mode: inhibitory effect on HSV-I replication (CPE, CCK-8); type: cell-based, Herpes simplex virus type I
Description: (2) The inhibitory effect of drugs on HSV-I replication: Vero cells were seeded in a 96-well plate and grew into a monolayer, before adding HSV-I virus solution at 100 μl/well, followed by incubation for 1 hour. Then, the cell maintenance solution containing different concentrations of sample was replaced, and the cells were further cultured. After 72 hours, the effect on the replication of virus was determined using the CCK-8 method.

[2] = Solubility (highest solubility used as starting concentration; water solubility)
Vero cells = test: Cytotoxic assay of tested drugs against Vero cells (CCK-8); type: cell-based, African green monkey
Description: 3. Cytotoxic assay of tested drugs against Vero cells: Vero cells were seed in a 96 well plate at 3×10^4 cells/well. The next day, after growing into a monolayer, the test drug was diluted to obtain 8-9 concentrations and added to each well. Meanwhile, a normal control group was established, with 4 replicate wells for each group. After 72 hours, the toxicity of the test drug to Vero cells was measured using CCK-8 assay, and the highest non-toxic concentration and half toxic concentration (TC50) of the drug on the cells were calculated.

HSV-I [3] = test: Cytopathic effect (CPE) assay: inhibition of pathological changes of Vero cells induced by HSV-I (CCK-8); type: cell-based, Herpes simplex virus type I
Description: (1) Determination of the inhibitory activities of the test drugs on pathological changes of Vero cells induced by HSV-I using the cytopathic effect (CPE) assay: Vero cells were seeded in a 96-well plate and grew into a monolayer the next day. 100TCID50 HSV-I was added to infect cells, and then the cell maintenance solution containing different concentrations of the test drug was replaced, and a cell control group was included. The cells were cultured in an incubator for 72 hours. Then, the inhibitory effect of the drug on virus-induced cytopathic changes was measured using the CCK-8 assay, and thus the 50% inhibiting concentration (IC50) of the drug was calculated.

COc1c(O)c(Cc2c(O)c(OC)c(O)c3c(=O)c(-c4ccc(O)c(S(=O)(=O)[O-])c4)coc23)c2occ(-c3ccc(O)c(S(=O)(=O)[O-])c3)c(=O)c2c1O.[Na+].[Na+] [Compound 2, 8,8″-methylene-di-(sodiumtectorigenin-5′-sulphonate)]
effect on viral replication (in words) (HSV-I [1]; CPE method): significant effect | inhibition at 5.97 µg/mL (HSV-I [1]; Human alphaherpesvirus 1, 5.97 μg/ml, n = 6, read-out: Effect on viral replication: Inhibition rate (%)): 13.1% | inhibition at 11.94 µg/mL (HSV-I [1]; Human alphaherpesvirus 1, 11.94 μg/ml, n = 6, read-out: Effect on viral replication: Inhibition rate (%)): 17.6% | inhibition at 23.88 µg/mL (HSV-I [1]; Human alphaherpesvirus 1, 23.88 μg/ml, n = 6, read-out: Effect on viral replication: Inhibition rate (%)): 50.5% | inhibition at 47.45 µg/mL (HSV-I [1]; Human alphaherpesvirus 1, 47.45 μg/ml, n = 6, read-out: Effect on viral replication: Inhibition rate (%)): 73.8% | inhibition at 95.5 µg/mL (HSV-I [1]; Human alphaherpesvirus 1, 95.50 μg/ml, n = 6, read-out: Effect on viral replication: Inhibition rate (%)): 96.2% | inhibition at 191 µg/mL (HSV-I [1]; Human alphaherpesvirus 1, 191.00 μg/ml, n = 6, read-out: Effect on viral replication: Inhibition rate (%)): 98% | inhibition at 382 µg/mL (HSV-I [1]; Human alphaherpesvirus 1, 382.00 μg/ml, n = 6, read-out: Effect on viral replication: Inhibition rate (%)): 98.8% | solubility [2]: 1600 µg/mL | growth inhibition rate (%) on Vero cells (Vero cells; 1st (highest) concentration (971, 1600, 2620, 390 μg·ml^−1 for Compounds 1-4), 72 h): 41.92** % | growth inhibition rate (%) on Vero cells (Vero cells; 2nd concentration, 50% serial dilution from column-head concentration, 72 h): 29.02** % | growth inhibition rate (%) on Vero cells (Vero cells; 3rd concentration, 50% serial dilution from column-head concentration, 72 h): 11.69** % | growth inhibition rate (%) on Vero cells (Vero cells; 4th concentration, 50% serial dilution from column-head concentration, 72 h): −4.55% | growth inhibition rate (%) on Vero cells (Vero cells; 5th concentration, 50% serial dilution from column-head concentration, 72 h): 5.46% | growth inhibition rate (%) on Vero cells (Vero cells; 6th concentration, 50% serial dilution from column-head concentration, 72 h): −4.74% | growth inhibition rate (%) on Vero cells (Vero cells; 7th concentration, 50% serial dilution from column-head concentration, 72 h): −12.11% | growth inhibition rate (%) on Vero cells (Vero cells; 8th concentration, 50% serial dilution from column-head concentration, 72 h): −8.20% | growth inhibition rate (%) on Vero cells (Vero cells; 9th concentration, 50% serial dilution from column-head concentration, 72 h): −13.88% | TC50 on Vero cells (Vero cells; 72 h, CCK-8, Probit regression): 1749.982 µg/mL | toxicity (in words) (Vero cells; Vero cells): lower toxicity | TC50 (Vero cells; Vero cells (Table 5)): 1749.982 µg/mL | highest non-toxic concentration (Vero cells; Vero cells, 72 h, CCK-8): 382.804 µg/mL | Average optical density (OD) (HSV-I [3]; 5.97 μg/ml, n = 6): 0.33 ± 0.04 | Average optical density (OD) (HSV-I [3]; 11.94 μg/ml, n = 6): 0.35 ± 0.05 | Average optical density (OD) (HSV-I [3]; 23.88 μg/ml, n = 6): 0.44 ± 0.07 | Average optical density (OD) (HSV-I [3]; 47.75 μg/ml, n = 6): 0.65 ± 0.06 | Average optical density (OD) (HSV-I [3]; 95.50 μg/ml, n = 6): 0.95 ± 0.04 | Average optical density (OD) (HSV-I [3]; 191.00 μg/ml, n = 6): 1.06 ± 0.05 | Average optical density (OD) (HSV-I [3]; 382.00 μg/ml, n = 6): 1.10 ± 0.03 | inhibitory effect on HSV-I induced cytopathic changes (in words) (HSV-I [3]; CPE method): significant inhibitory effect | inhibition at 5.97 µg/mL (HSV-I [3]; Human alphaherpesvirus 1, Vero, 5.97 μg/ml, n = 6, read-out: Inhibition rate (%)): -0.36% | inhibition at 11.94 µg/mL (HSV-I [3]; Human alphaherpesvirus 1, Vero, 11.94 μg/ml, n = 6, read-out: Inhibition rate (%)): 2.87% | inhibition at 23.88 µg/mL (HSV-I [3]; Human alphaherpesvirus 1, Vero, 23.88 μg/ml, n = 6, read-out: Inhibition rate (%)): 14.5% | inhibition at 47.75 µg/mL (HSV-I [3]; Human alphaherpesvirus 1, Vero, 47.75 μg/ml, n = 6, read-out: Inhibition rate (%)): 40.7% | inhibition at 95.5 µg/mL (HSV-I [3]; Human alphaherpesvirus 1, Vero, 95.50 μg/ml, n = 6, read-out: Inhibition rate (%)): 79.9% | inhibition at 191 µg/mL (HSV-I [3]; Human alphaherpesvirus 1, Vero, 191.00 μg/ml, n = 6, read-out: Inhibition rate (%)): 94% | inhibition at 382 µg/mL (HSV-I [3]; Human alphaherpesvirus 1, Vero, 382.00 μg/ml, n = 6, read-out: Inhibition rate (%)): 99.2% | IC50 (HSV-I [3]; Human alphaherpesvirus 1, against HSV-I in Vero cells, Probit regression): 54.5 µg/mL | SI (selection index = TC50/IC50) (HSV-I [3]; TC50 on Vero cells / IC50 against HSV-I): 32.117
